Active and inactive are the calls of the source. The rule behind the calls is not given here.
Columns and labels:
MCF7 [1] = experiment: Inhibition of 17-beta-estradiol induced MCF-7 cell proliferation;NA=not active; format: functional, cell-based; conditions: Homo sapiens
MCF7 [2] = experiment: Inhibition of 17-beta-estradiol induced MCF-7 cell proliferation; NA=not active; format: functional, cell-based; conditions: Homo sapiens
MCF7 [3] = experiment: Inhibition of 17-beta-estradiol induced MCF-7 cell proliferation; format: functional, cell-based; conditions: Homo sapiens
[4] = target: Estrogen receptor (Homo sapiens) (UniProt Q92731+P03372); experiment: Relative binding affinity(RBA) as displacement of [3H]17-beta-estradiol from MCF-7 cell lysate;NA=not active; format: cell-based

IC50 (MCF7 [3]) [nM]	Structure (SMILES)	further results
	O=c1c2cc(O)ccc2c2ccc3cc(O)ccc3c2n1-c1ccc(OCCN2CCCCC2)cc1	NA (MCF7 [1]): inactive
	C[C@]12CC[C@@H]3c4ccc(O)cc4CC[C@H]3[C@@H]1CC[C@@H]2O	NA (MCF7 [2]): inactive
19	COc1ccc2c(c1)CN(c1ccc(OCCN3CCCCC3)cc1)c1c-2ccc2cc(OC)ccc12	
1	Oc1ccc2c(c1)CN(c1ccc(OCCN3CCCCC3)cc1)c1c-2ccc2cc(O)ccc12	
128	O=c1c2cc(O)ccc2c2c(n1-c1ccc(OCCN3CCCCC3)cc1)-c1ccc(O)cc1CC2	
287	COc1ccc2c(c1)CN(c1ccc(OCCN3CCCCC3)cc1)C1=C2CCc2cc(OC)ccc21	
	COc1ccc2c(ccc3c4ccc(OC)cc4c(=O)n(-c4ccc(OCCN5CCCCC5)cc4)c23)c1	NA (MCF7 [1]): inactive; NA [4]: inactive
